Measured values published in ChEMBL document CHEMBL1201862, “PubChem BioAssay data set” (2004).
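Assay format: 96-well plates, 48-hour exposure. GI50: concentration for 50% inhibition of growth.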 Calls of active or inactive are those of the source. Cut-off read from the data, not from the text of the source: active = GI50 up to about 1.1 µM and inactive = higher.

Legend:
Assay in all cases: NCI tumour cell line growth inhibition, 48 h
[1] = test system: 786-0
[2] = test system: ACHN
[3] = test system: DU-145
[4] = test system: HOP-92
[5] = test system: MCF7
[6] = test system: MDA-MB-231
[7] = test system: MDA-MB-435
[8] = test system: MDA-N
[9] = test system: NCI/ADR-RES
[10] = test system: PC-3
[11] = test system: SR
[12] = test system: T47D
[13] = test system: TK-10
[14] = test system: A498
[15] = test system: Malme-3M
[16] = test system: SNB-75

| SMILES | GI50 [1] | GI50 [2] | GI50 [3] | GI50 [4] | GI50 [5] | GI50 [6] | GI50 [7] | GI50 [8] | GI50 [9] | GI50 [10] | GI50 [11] | GI50 [12] | GI50 [13] | GI50 [14] | GI50 [15] | GI50 [16] |
| --- | --- | --- | --- | --- | --- | --- | --- | --- | --- | --- | --- | --- | --- | --- | --- | --- |
| COc1cccc(C2CC(=O)c3cc(N4CCCC4)ccc3N2)c1 (stereo unspecified) | 0.0404 µM (active) | 0.0832 µM (active) | 0.0344 µM (active) | 0.348 µM (active) | 0.398 µM (active) | 0.0766 µM (active) | 0.00794 µM (active) | 0.00269 µM (active) | 0.0173 µM (active) | 0.022 µM (active) | 0.0144 µM (active) | 56 µM (inactive) | 1.21 µM (inactive) | – | – | – |
| COC(=O)C1=C(O)C(C(=O)OC)[C@]2(O)[C@@H](C(=O)OC)[C@H]1C[C@@H](c1ccccc1)[C@@H]2C(=O)OC (stereo partly specified) | – | 17.9 µM (inactive) | 11.9 µM (inactive) | – | 5.93 µM (inactive) | 16.1 µM (inactive) | 7.71 µM (inactive) | 5.01 µM (inactive) | – | – | 4.17 µM (inactive) | 27.6 µM (inactive) | 23.7 µM (inactive) | 17.2 µM (inactive) | 18.2 µM (inactive) | 16.9 µM (inactive) |
| Cc1c(OCc2ccccc2)c(=O)ccn1CCc1c[nH]c2ccccc12 | 33.9 µM (inactive) | > 100 µM (inactive) | 25.9 µM (inactive) | 14.4 µM (inactive) | 18.5 µM (inactive) | 34.1 µM (inactive) | 20 µM (inactive) | 28.7 µM (inactive) | 86.7 µM (inactive) | 30.9 µM (inactive) | 27.6 µM (inactive) | 17.3 µM (inactive) | 40.6 µM (inactive) | – | 22.1 µM (inactive) | – |
| CC(=O)N1C(Nc2cnc3ccccc3c2)CCN1c1ccccc1 (stereo unspecified) | > 10 µM (inactive) | 9.57 µM (inactive) | > 10 µM (inactive) | – | > 10 µM (inactive) | > 10 µM (inactive) | > 10 µM (inactive) | > 10 µM (inactive) | > 10 µM (inactive) | > 10 µM (inactive) | > 10 µM (inactive) | > 10 µM (inactive) | > 10 µM (inactive) | – | > 10 µM (inactive) | > 10 µM (inactive) |
| O=C(N/N=C/C=C/c1ccc([N+](=O)[O-])o1)c1ccc(Br)s1 | 19.1 µM (inactive) | 16.3 µM (inactive) | 30.3 µM (inactive) | 10.8 µM (inactive) | 16.3 µM (inactive) | 22.8 µM (inactive) | 25.4 µM (inactive) | 20.6 µM (inactive) | 25.1 µM (inactive) | 18.7 µM (inactive) | – | 28.4 µM (inactive) | 20 µM (inactive) | 32.1 µM (inactive) | 14.9 µM (inactive) | > 100 µM (inactive) |
| C=C1OC(=O)[C@]2([C@@H](/C=C/C)C=CC(=O)[C@H]2O)[C@@H]1O | > 100 µM (inactive) | > 100 µM (inactive) | > 100 µM (inactive) | – | > 100 µM (inactive) | > 100 µM (inactive) | > 100 µM (inactive) | > 100 µM (inactive) | > 100 µM (inactive) | > 100 µM (inactive) | 73.6 µM (inactive) | > 100 µM (inactive) | > 100 µM (inactive) | – | > 100 µM (inactive) | > 100 µM (inactive) |
| CN1CC=C(c2cccn2C)CC1 | > 100 µM (inactive) | > 100 µM (inactive) | > 100 µM (inactive) | – | > 100 µM (inactive) | > 100 µM (inactive) | > 100 µM (inactive) | > 100 µM (inactive) | > 100 µM (inactive) | > 100 µM (inactive) | > 100 µM (inactive) | > 100 µM (inactive) | > 100 µM (inactive) | – | > 100 µM (inactive) | > 100 µM (inactive) |
| O=c1ccn(CC2(CO)CC(Cc3ccccc3)C2)c(=O)[nH]1 (stereo unspecified) | > 100 µM (inactive) | > 100 µM (inactive) | > 100 µM (inactive) | – | > 100 µM (inactive) | > 100 µM (inactive) | > 100 µM (inactive) | > 100 µM (inactive) | > 100 µM (inactive) | > 100 µM (inactive) | > 100 µM (inactive) | > 100 µM (inactive) | > 100 µM (inactive) | > 100 µM (inactive) | > 100 µM (inactive) | > 100 µM (inactive) |
| CCOC(=O)C[C@@H]1C2(C=C[C@@]13CO3)OCC(C)(C)CO2 | – | – | > 100 µM (inactive) | > 100 µM (inactive) | > 100 µM (inactive) | > 100 µM (inactive) | > 100 µM (inactive) | > 100 µM (inactive) | > 100 µM (inactive) | > 100 µM (inactive) | > 100 µM (inactive) | > 100 µM (inactive) | > 100 µM (inactive) | > 100 µM (inactive) | > 100 µM (inactive) | > 100 µM (inactive) |
| CC(=O)OC(C(=O)O)C(OC(C)=O)C(OC(C)=O)C(OC(C)=O)C(=O)O (stereo unspecified) | – | – | – | > 100 µM (inactive) | > 100 µM (inactive) | > 100 µM (inactive) | > 100 µM (inactive) | > 100 µM (inactive) | > 100 µM (inactive) | > 100 µM (inactive) | > 100 µM (inactive) | – | > 100 µM (inactive) | > 100 µM (inactive) | > 100 µM (inactive) | – |
| O=Cc1cn(CCCCCCCCn2cc(C=O)c3ccccc32)c2ccccc12 | – | > 10 µM (inactive) | 8.05 µM (inactive) | – | 7.13 µM (inactive) | > 10 µM (inactive) | > 10 µM (inactive) | > 10 µM (inactive) | 5.15 µM (inactive) | 4.22 µM (inactive) | 9.57 µM (inactive) | 3.91 µM (inactive) | > 10 µM (inactive) | 1.63 µM (inactive) | > 10 µM (inactive) | 5.6 µM (inactive) |
| O=C(O)CSCc1cc2c(O)c(c1)Cc1cc(CSCC(=O)O)cc(c1O)Cc1cc(CSCC(=O)O)cc(c1O)Cc1cc(CSCC(=O)O)cc(c1O)C2 | > 100 µM (inactive) | > 100 µM (inactive) | > 100 µM (inactive) | > 100 µM (inactive) | > 100 µM (inactive) | – | 61.1 µM (inactive) | > 100 µM (inactive) | > 100 µM (inactive) | > 100 µM (inactive) | > 100 µM (inactive) | > 100 µM (inactive) | > 100 µM (inactive) | > 100 µM (inactive) | > 100 µM (inactive) | – |
| COC(=O)c1ccc(NCC2=C(Br)C(=O)C=CC2=O)cc1Cl | 13.3 µM (inactive) | 17 µM (inactive) | 22.8 µM (inactive) | 15.6 µM (inactive) | 17 µM (inactive) | 18.3 µM (inactive) | 19.2 µM (inactive) | 16.9 µM (inactive) | 23.2 µM (inactive) | 20 µM (inactive) | – | 20 µM (inactive) | 16.4 µM (inactive) | > 100 µM (inactive) | 15.2 µM (inactive) | 42.5 µM (inactive) |
| CC(=O)O[C@H]1[C@@H]2OC(=O)[C@@](O)(CC3CCCO3)[C@@H]2CC(=O)[C@](C)(O)CC/C=C(\C)CCC[C@@H]1C (stereo partly specified) | 37.9 µM (inactive) | 38.8 µM (inactive) | 37.8 µM (inactive) | 28.2 µM (inactive) | 24.7 µM (inactive) | 20.7 µM (inactive) | 31.7 µM (inactive) | 20.6 µM (inactive) | 57.9 µM (inactive) | 36.5 µM (inactive) | – | 24.8 µM (inactive) | 40.8 µM (inactive) | > 100 µM (inactive) | 41.2 µM (inactive) | 97.5 µM (inactive) |
| O=P1(N2CCOCC2)OCCO1 | > 100 µM (inactive) | > 100 µM (inactive) | > 100 µM (inactive) | > 100 µM (inactive) | > 100 µM (inactive) | – | > 100 µM (inactive) | > 100 µM (inactive) | > 100 µM (inactive) | > 100 µM (inactive) | > 100 µM (inactive) | – | – | > 100 µM (inactive) | > 100 µM (inactive) | – |
| CCOC(=O)c1c(-c2ccccc2)c(C)cn1C | > 10 µM (inactive) | > 10 µM (inactive) | > 10 µM (inactive) | > 10 µM (inactive) | – | 0.0125 µM (active) | > 10 µM (inactive) | > 10 µM (inactive) | > 10 µM (inactive) | – | > 10 µM (inactive) | – | > 10 µM (inactive) | – | – | > 10 µM (inactive) |
| CCOC(=O)/C(C(=O)Nc1ccc(Cl)cc1)=C(/N)N1CCCC1 | > 100 µM (inactive) | 45.6 µM (inactive) | > 100 µM (inactive) | – | > 100 µM (inactive) | > 100 µM (inactive) | > 100 µM (inactive) | > 100 µM (inactive) | > 100 µM (inactive) | > 100 µM (inactive) | – | > 100 µM (inactive) | > 100 µM (inactive) | 64.4 µM (inactive) | > 100 µM (inactive) | > 100 µM (inactive) |
| NC[C@H]1Nc2ccccc2[C@@H](O)C1O (stereo partly specified) | > 100 µM (inactive) | > 100 µM (inactive) | > 100 µM (inactive) | > 100 µM (inactive) | > 100 µM (inactive) | > 100 µM (inactive) | > 100 µM (inactive) | > 100 µM (inactive) | > 100 µM (inactive) | > 100 µM (inactive) | > 100 µM (inactive) | > 100 µM (inactive) | > 100 µM (inactive) | – | > 100 µM (inactive) | > 100 µM (inactive) |
| O=C1Cc2c(-c3ccccc3)cc(-c3cccc(Cl)c3)nc2-c2ccccc2N1 | – | – | 2.61 µM (inactive) | 1.34 µM (inactive) | 2.22 µM (inactive) | 1.15 µM (inactive) | 8.91 µM (inactive) | 6.82 µM (inactive) | 2.05 µM (inactive) | 5.97 µM (inactive) | 37.9 µM (inactive) | 2.05 µM (inactive) | 1.49 µM (inactive) | 4.82 µM (inactive) | 3.82 µM (inactive) | 1.77 µM (inactive) |
| CN(CCCCCl)P(=O)(OCC1=CC(=O)c2ccccc2C1=O)OC[C@H]1O[C@@H](n2cc(F)c(=O)[nH]c2=O)C[C@@H]1O (stereo partly specified) | – | < 0.01 µM (active) | 0.052 µM (active) | < 0.0285 µM (active) | < 0.01 µM (active) | 3.2 µM (inactive) | 0.684 µM (active) | 0.753 µM (active) | – | 0.165 µM (active) | – | – | 1.45 µM (inactive) | – | 1.1 µM (active) | < 0.0176 µM (active) |
